This is an account of results in paper PMC11596392, “Enhanced Antibacterial, Anti-Inflammatory, and Antibiofilm Activities of Tryptophan-Substituted Peptides Derived from Cecropin A-Melittin Hybrid Peptide BP100” (Molecules, 2024).

In brackets after ≈: the same amount, converted by molar mass. Where two headings read alike, the source gives them in different places. Where no end group is shown, it is not given here.

Experiment [1] has as its system E. coli (KCTC 1682). It is filed as cell-based, Escherichia coli. The method, then: (§1) To comprehensively evaluate the therapeutic potential of BP100 and the five selected analogs, we assessed their capacity to maintain antibacterial activity in the presence of physiological salts and serum (Table 4). Antibacterial assays were conducted in an environment supplemented with either […] fresh human serum or physiological salts. […] This enhanced stability in physiologically relevant conditions may have important implications for the potential therapeutic applications of these peptide analogs.
(§2) The minimal inhibitory concentrations (MICs) of the peptides against bacterial strains were determined using a modified broth-microdilution method in accordance with the National Committee for Clinical Laboratory Standards (NCCLS) guidelines. Overnight cultures were diluted in cation-adjusted Mueller–Hinton Broth (MHB) to achieve an inoculum density of 2 × 10^6 CFU/mL. A two-fold serial dilution of the peptide solution (100 μL) was introduced into microtiter plates, followed by the addition of 100 μL of bacterial suspension. The plates were then incubated at 37 °C for 24 h to determine the MICs. Wells containing only culture media served as negative controls, while those with added bacteria functioned as positive controls. The MIC, expressed in μM, was defined as the lowest peptide concentration that prevented visible bacterial growth. This protocol was also employed to determine MICs in the presence of physiological salts (150 mM of NaCl, 4.5 mM of KCl, 6 μM of NH4Cl, 1 mM of MgCl2, 2.5 mM of CaCl2, and 4 μM of FeCl3) and 20% human serum to assess the peptides’ efficacy under conditions more closely resembling physiological environments. All experiments were conducted in triplicate and repeated three times independently to ensure reproducibility and statistical significance of the results.

Experiment [2] deals with S. aureus (KCTC 1621). Type of experiment: cell-based, Staphylococcus aureus. How it is done: as §1, §2
In experiment [3] the test system is E. coli (KCTC 1682). It is filed as cell-based, Escherichia coli. Particulars: 10% Human Serum.
Experiment [4] has as its system S. aureus (KCTC 1621). It is filed as cell-based, Staphylococcus aureus. Particulars: 10% Human Serum.

On to `CC[C@H](C)[C@H](NC(=O)[C@H](CCCCN)NC(=O)[C@H](CCCCN)NC(=O)[C@H](Cc1ccccc1)NC(=O)[C@H](CC(C)C)NC(=O)[C@H](CCCCN)NC(=O)[C@@H](N)CCCCN)C(=O)N[C@@H](CC(C)C)C(=O)N[C@@H](CCCCN)C(=O)N[C@@H](Cc1ccc(O)cc1)C(=O)N[C@@H](CC(C)C)C(N)=O` [BP100], for which the MIC against E. coli (KCTC 1682) [1] (4 μM of FeCl3), against E. coli (KCTC 1682) [1] (6 μM of NH4Cl), in the experiment with E. coli (KCTC 1682) [1] (1 mM of MgCl2), in the experiment on E. coli (KCTC 1682) [1] (2.5 mM of CaCl2), against E. coli (KCTC 1682) [1] (4.5 mM of KCl) and with E. coli (KCTC 1682) [1] (150 mM of NaCl) was 16 µM (≈ 22.7 µg/mL) throughout. The MIC with E. coli (KCTC 1682) [1] (Control, absence of salts) was determined as 4 µM; against S. aureus (KCTC 1621) [2] (4 μM of FeCl3) it was 16 µM (≈ 22.7 µg/mL); against S. aureus (KCTC 1621) [2] (6 μM of NH4Cl) it was 16 µM (≈ 22.7 µg/mL); against S. aureus (KCTC 1621) [2] (1 mM of MgCl2), 16 µM (≈ 22.7 µg/mL); in the experiment on S. aureus (KCTC 1621) [2] (2.5 mM of CaCl2), 16 µM (≈ 22.7 µg/mL); in the experiment on S. aureus (KCTC 1621) [2] (4.5 mM of KCl), 16 µM (≈ 22.7 µg/mL). In addition, the minimal inhibitory concentration (MIC) against S. aureus (KCTC 1621) [2] (150 mM of NaCl) is 16 µM (≈ 22.7 µg/mL); with S. aureus (KCTC 1621) [2] (Control, absence of salts), 4 µM; in the experiment on E. coli (KCTC 1682) [3], 16 µM (≈ 22.7 µg/mL); against S. aureus (KCTC 1621) [4], 32 µM (≈ 45.5 µg/mL).

On to KKLFKKIWKWL-NH2 [BP11], for which the minimum inhibitory concentration (MIC) came to 4 µM against E. coli (KCTC 1682) [1] (4 μM of FeCl3); 4 µM against E. coli (KCTC 1682) [1] (6 μM of NH4Cl); 8 µM in the experiment on E. coli (KCTC 1682) [1] (1 mM of MgCl2); 16 µM against E. coli (KCTC 1682) [1] (2.5 mM of CaCl2); 8 µM with E. coli (KCTC 1682) [1] (4.5 mM of KCl); 16 µM in the experiment on E. coli (KCTC 1682) [1] (150 mM of NaCl). Also, the MIC in the experiment with E. coli (KCTC 1682) [1] (Control, absence of salts) was determined as 8 µM; against S. aureus (KCTC 1621) [2] (4 μM of FeCl3) it was 4 µM; against S. aureus (KCTC 1621) [2] (6 μM of NH4Cl), 4 µM; in the experiment on S. aureus (KCTC 1621) [2] (1 mM of MgCl2) it was 4 µM; with S. aureus (KCTC 1621) [2] (2.5 mM of CaCl2), 16 µM; against S. aureus (KCTC 1621) [2] (4.5 mM of KCl), 4 µM. For the same molecule, the minimal inhibitory concentration (MIC) is 8 µM in the experiment on S. aureus (KCTC 1621) [2] (150 mM of NaCl); 4 µM with S. aureus (KCTC 1621) [2] (Control, absence of salts); 8 µM in the experiment with E. coli (KCTC 1682) [3]; 8 µM against S. aureus (KCTC 1621) [4].

As for KKLWKKILKWL-NH2 [BP8], the MIC against E. coli (KCTC 1682) [1] (4 μM of FeCl3) is 4 µM; with E. coli (KCTC 1682) [1] (6 μM of NH4Cl) it was 8 µM; against E. coli (KCTC 1682) [1] (1 mM of MgCl2), 8 µM; with E. coli (KCTC 1682) [1] (2.5 mM of CaCl2) it was 16 µM; in the experiment on E. coli (KCTC 1682) [1] (4.5 mM of KCl) it was 4 µM; with E. coli (KCTC 1682) [1] (150 mM of NaCl), 8 µM. Further, the MIC in the experiment on E. coli (KCTC 1682) [1] (Control, absence of salts) came to 2 µM; with S. aureus (KCTC 1621) [2] (4 μM of FeCl3), 4 µM; in the experiment with S. aureus (KCTC 1621) [2] (6 μM of NH4Cl), 4 µM; in the experiment on S. aureus (KCTC 1621) [2] (1 mM of MgCl2), 4 µM; against S. aureus (KCTC 1621) [2] (2.5 mM of CaCl2) it was 4 µM; against S. aureus (KCTC 1621) [2] (4.5 mM of KCl), 4 µM. Also, the MIC against S. aureus (KCTC 1621) [2] (150 mM of NaCl) was found to be 4 µM; in the experiment with S. aureus (KCTC 1621) [2] (Control, absence of salts), 4 µM; in the experiment with E. coli (KCTC 1682) [3], 4 µM; in the experiment with S. aureus (KCTC 1621) [4], 4 µM.

Regarding KKWFKKILKWL-NH2 [BP6], the MIC in the experiment on E. coli (KCTC 1682) [1] (4 μM of FeCl3) is 16 µM; with E. coli (KCTC 1682) [1] (6 μM of NH4Cl), 16 µM; in the experiment with E. coli (KCTC 1682) [1] (1 mM of MgCl2), 8 µM; against E. coli (KCTC 1682) [1] (2.5 mM of CaCl2), 16 µM; in the experiment on E. coli (KCTC 1682) [1] (4.5 mM of KCl), 4 µM; against E. coli (KCTC 1682) [1] (150 mM of NaCl), 8 µM. In addition, the MIC with E. coli (KCTC 1682) [1] (Control, absence of salts) came to 4 µM; in the experiment on S. aureus (KCTC 1621) [2] (4 μM of FeCl3) it was 8 µM; against S. aureus (KCTC 1621) [2] (6 μM of NH4Cl), 4 µM; against S. aureus (KCTC 1621) [2] (1 mM of MgCl2) it was 4 µM; against S. aureus (KCTC 1621) [2] (2.5 mM of CaCl2), 4 µM; with S. aureus (KCTC 1621) [2] (4.5 mM of KCl) it was 4 µM. The MIC worked out at 4 µM in the experiment on S. aureus (KCTC 1621) [2] (150 mM of NaCl); 2 µM in the experiment with S. aureus (KCTC 1621) [2] (Control, absence of salts); 4 µM in the experiment with E. coli (KCTC 1682) [3]; 4 µM against S. aureus (KCTC 1621) [4].

Take KKWFKKWLKWL-NH2 [BP13]: the minimum inhibitory concentration (MIC) against E. coli (KCTC 1682) [1] (4 μM of FeCl3) turned out to be 8 µM; in the experiment with E. coli (KCTC 1682) [1] (6 μM of NH4Cl), 8 µM; with E. coli (KCTC 1682) [1] (1 mM of MgCl2), 8 µM; in the experiment on E. coli (KCTC 1682) [1] (2.5 mM of CaCl2) it was 16 µM; with E. coli (KCTC 1682) [1] (4.5 mM of KCl), 8 µM; with E. coli (KCTC 1682) [1] (150 mM of NaCl), 16 µM. The minimum inhibitory concentration (MIC) in the experiment with E. coli (KCTC 1682) [1] (Control, absence of salts) is 8 µM; in the experiment with S. aureus (KCTC 1621) [2] (4 μM of FeCl3), 8 µM; against S. aureus (KCTC 1621) [2] (6 μM of NH4Cl), 8 µM; with S. aureus (KCTC 1621) [2] (1 mM of MgCl2) it was 8 µM; in the experiment with S. aureus (KCTC 1621) [2] (2.5 mM of CaCl2), 8 µM; against S. aureus (KCTC 1621) [2] (4.5 mM of KCl), 8 µM. Moreover, the minimal inhibitory concentration (MIC) against S. aureus (KCTC 1621) [2] (150 mM of NaCl) amounted to 8 µM; in the experiment with S. aureus (KCTC 1621) [2] (Control, absence of salts) it was 4 µM; against E. coli (KCTC 1682) [3], 16 µM; against S. aureus (KCTC 1621) [4] it was 8 µM.

Take KKWWKKILKYL-NH2 [BP5]: the minimal inhibitory concentration (MIC) in the experiment on E. coli (KCTC 1682) [1] (4 μM of FeCl3) came to 8 µM; against E. coli (KCTC 1682) [1] (6 μM of NH4Cl), 4 µM; against E. coli (KCTC 1682) [1] (1 mM of MgCl2), 4 µM; in the experiment with E. coli (KCTC 1682) [1] (2.5 mM of CaCl2), 8 µM; in the experiment with E. coli (KCTC 1682) [1] (4.5 mM of KCl), 4 µM; with E. coli (KCTC 1682) [1] (150 mM of NaCl) it was 8 µM. Besides, the minimal inhibitory concentration (MIC) in the experiment on E. coli (KCTC 1682) [1] (Control, absence of salts) came out at 2 µM; against S. aureus (KCTC 1621) [2] (4 μM of FeCl3), 4 µM; against S. aureus (KCTC 1621) [2] (6 μM of NH4Cl) it was 4 µM; against S. aureus (KCTC 1621) [2] (1 mM of MgCl2), 4 µM; against S. aureus (KCTC 1621) [2] (2.5 mM of CaCl2), 4 µM; against S. aureus (KCTC 1621) [2] (4.5 mM of KCl) it was 4 µM. Moreover, the minimal inhibitory concentration (MIC) was 4 µM in the experiment with S. aureus (KCTC 1621) [2] (150 mM of NaCl); 2 µM with S. aureus (KCTC 1621) [2] (Control, absence of salts); 4 µM in the experiment on E. coli (KCTC 1682) [3]; 4 µM against S. aureus (KCTC 1621) [4].

Broadly, the MIC is the smallest concentration in the dilution series that meets the test's criterion for growth inhibition.
